Molecular target: T1, Pfu-FtsY (Pyrococcus furiosus, UniProt Q8U051)
T1 construct: full-length; N-terminal hexahistidine tag (pET28b, thrombin-cleavable) removed; expressed in E. coli BL21(DE3)-rosetta2; calculated mass 35,810 Da; monomer
T1 sequence (Q8U051 1-322): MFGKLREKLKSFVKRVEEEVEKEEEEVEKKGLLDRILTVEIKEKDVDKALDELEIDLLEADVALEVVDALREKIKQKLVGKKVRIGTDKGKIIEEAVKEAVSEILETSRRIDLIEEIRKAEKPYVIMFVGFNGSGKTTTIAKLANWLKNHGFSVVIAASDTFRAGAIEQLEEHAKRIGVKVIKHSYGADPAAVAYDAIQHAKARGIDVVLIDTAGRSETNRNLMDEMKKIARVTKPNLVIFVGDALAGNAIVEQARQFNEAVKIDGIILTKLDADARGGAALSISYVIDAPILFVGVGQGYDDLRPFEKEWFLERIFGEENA
Assay: X-ray crystal structure, […] Å
Type: binding
Details: Mg2+; co-crystallised with 10 mM GTP (hydrolysed to GDP), pH 8.0; catalytic site at full occupancy; additional external GDP at crystal contact near insertion box domain (second site, 69% occupancy)

Structure (SMILES): Nc1nc2c(ncn2[C@@H]2O[C@H](COP(=O)(O)OP(=O)(O)O)[C@@H](O)[C@H]2O)c(=O)[nH]1 [GDP]
- X-ray crystal structure, 2.0 Å: the crystal structure we obtained showed the presence of GDP•magnesium bound in the catalytic site

Reference: paper PMC2572998, “Structures of the Signal Recognition Particle Receptor from the Archaeon Pyrococcus furiosus: Implications for the Targeting Step at the Membrane” (PLoS ONE, 2008)
